Reference: patent publication EP0252380B1, “Antibiotic LL-E19020 alpha and beta” (AMERICAN CYANAMID COMPANY, priority 1986, dated 1988)
Converted amounts (≈) assume the structure as drawn.

What was measured:
Caenorhabditis elegans = experiment: Control of the free living nematode Caenorhabditis elegans (motility rating); format: cell-based; set-up: key: 9 = worms immobile or dead within 4 hours post immersion in microfilter test solution; 8 = no motility; 7 = markedly reduced motility in approximately 95% of worms; 6 = reduced motility; 5 = slightly reduced motility; 0 = normal motility, same as controls; conditions: 150 ppm; motility of adults and larvae
Description: Culture Maintenance: Cultures of C. elegans (Bristol strain from J. Lewis) are maintained on E. coli lawns on NG Agar Plates at 20 C. New cultures are established weekly. Nematodes for testing are washed from 4-5 day old cultures using Fresh Ascaris ringers Solution (FARS). The worms are further washed with FARS, containing gentamycin, to reduce bacterial contamination and centrifuged to separate worms from wash solution. This procedure is repeated three times. The washed worms are than added to C. briggsae Maintenance Medium (CbMM), from GIBCO^a to which is added gentamycin (600 units/ml) and mycostatin (0.5 mg.ml). ^aGIBCO Laboratories, 3175 Staley Road, Grand Island, N.Y. 14027, USA Compounds are dissolved in acetone and made up to volume with equal parts of water. The final test concentration of each compound in the mixture is 150 ppm. The test material is micropipetted (25 ul) into a single well of a 96-well sterile tissue culture plate (COSTAR)^b and the solvent allowed to evaporate. These "treated" plates are used immediately or stored in a freezer without apparent adverse effects on the compounds. ^b205 Broadway, Cambridge, MA 02139, USA […] […] Immediately prior to reading the plate, it is gently tapped to stimulate the movement of the worms. Activity is judged subjectively, but semi-quantitatively, based on the drug effects on motility of the adults and larvae. […]

Bacteroides fragilis = experiment: In vitro antibacterial activity, standard agar dilution method (Table II); format: cell-based; conditions: strain NYC 77-1
Morganella morganii = experiment: as above; format: cell-based; conditions: strain VGH-84-71
[1] = test system: Streptococcus sp. (β-hemolytic); experiment: as above; format: cell-based
Escherichia coli = experiment: Minimum inhibitory concentration by agar dilution (Table VI); format: cell-based; conditions: 2 strains tested
[2] = test system: Trichostrongylus colubriformis; experiment: Trichostrongylus colubriformis/gerbil anthelmintic evaluation; format: in vivo, Gerbils
Description: Gerbils are infected with 400 infective larvae of the sheep parasite, T. colubriformis on a day 0. On day 7 gerbils are divided into test and untreated control groups of 2-3 animals. Drug is administered in the feed and are fed from day 7-11. Drugs may also be given by gavage (single oral dose) or injected subcutaneously. Single doses are usually administered on day 7. Gerbils are killed on day 11 and small intestines removed. The number of T. colubriformis remaining in the intestines of treated animals are counted and compared to the number remaining in the untreated controls.

Streptococcus pyogenes = experiment: Minimum inhibitory concentration by agar dilution (Table VI); format: cell-based; conditions: 2 strains tested
Salmonella choleraesuis = experiment: as above; format: cell-based; conditions: 2 strains tested
Klebsiella pneumoniae = experiment: In vitro antibacterial activity, standard agar dilution method (Table II); format: cell-based; conditions: strain AD
Staphylococcus aureus = experiment: as above; format: cell-based
Peptococcus magnus = experiment: as above; format: cell-based
Enterobacter cloacae = experiment: as above; format: cell-based; conditions: strain VGH-84-37
Treponema hyodysenteriae [3] = experiment: Minimum inhibitory concentration by microdilution (Table VII); format: cell-based
Pasteurella multocida = experiment: Minimum inhibitory concentration by agar dilution (Table VI); format: cell-based; conditions: 6 strains tested
Clostridium difficile = experiment: In vitro antibacterial activity, standard agar dilution method (Table II); format: cell-based; conditions: strain ATCC 17858
[4] = test system: Streptococcus pyogenes C203; experiment: In vivo antibacterial activity in infected mice (Table III); conditions: S. pyogenes C203, 30 minutes before infection
Treponema hyodysenteriae [5] = experiment: T. hyodysenteriae disk test (primary in vitro disk diffusion test); conditions: disks soaked in 2.5 mg/ml solution, zones of inhibited hemolysis
[6] = test system: Staphylococcus epidermidis; experiment: In vitro antibacterial activity, standard agar dilution method (Table II); format: cell-based; conditions: strain IO-83-58
Serratia marcescens = experiment: as above; format: cell-based; conditions: strain K-84-18
Streptococcus pneumoniae = experiment: as above; format: cell-based
[7] = test system: Pasteurella haemolytica 30660; experiment: Pasteurella disk test (primary in vitro disk diffusion test); format: cell-based; conditions: disks soaked in 2.5 mg/ml solution; strain 30660
[8] = test system: Staphylococcus saprophyticus; experiment: In vitro antibacterial activity, standard agar dilution method (Table II); format: cell-based; conditions: strain VHG-84-50
[9] = single subcutaneous dose 4 mg/kg
[10] = single subcutaneous dose 8 mg/kg
[11] = single subcutaneous dose 16 mg/kg
[12] = single subcutaneous dose 32 mg/kg
[13] = single subcutaneous dose 64 mg/kg

C/C=C\C=C\[C@@H]1O[C@](O)([C@H](CO[C@H]2C[C@@H](OC)[C@@H](O[C@@H]3C[C@@H](OC)[C@@H](O[C@H]4C[C@H](OC)[C@H](O)[C@H](C)O4)[C@H](C)O3)[C@@H](C)O2)C(=O)NC/C=C/C=C(\C)[C@@H](OC)[C@H](C)[C@H]2C[C@H](O)[C@H](/C=C/C=C/C=C/C(=O)O)O2)[C@H](OC(=O)Cc2ccccc2)[C@H](O)C1(C)C [LL-E19020 alpha]
Rating (Caenorhabditis elegans): 9 (immobile or dead) | Minimal Inhibitory Concentration (Bacteroides fragilis): >128 µg/mL | Minimal Inhibitory Concentration (Morganella morganii): >256 µg/mL | Minimal Inhibitory Concentration ([1]; strain C203): 0.5 µg/mL | Minimal Inhibitory Concentration ([1]; strain VGH-84-60): 0.25 µg/mL | Minimal Inhibitory Concentration ([1]; strain VGH-84-61): 1 µg/mL | Minimal Inhibitory Concentration ([1]; strain VGH-84-62): 1 µg/mL | Minimal Inhibitory Concentration ([1]; strain VGH-84-63): 0.12 µg/mL | Minimal Inhibitory Concentration ([1]; strain VGH-84-64): 0.12 µg/mL | MIC (Escherichia coli): ≧ 256 µg/ml | % Worms Removed ([2]; 10 m/kg single oral dose): 23% | % Worms Removed ([2]; 250 ppm diet, fed day 7-11): 56% | MIC (Streptococcus pyogenes): 2 µg/mL (≈ 1.63 µM) | MIC (Salmonella choleraesuis): > 256 µg/mL | Minimal Inhibitory Concentration (Klebsiella pneumoniae): >256 µg/mL | Minimal Inhibitory Concentration (Staphylococcus aureus; strain ATCC 25923): > 256 µg/mL | Minimal Inhibitory Concentration (Staphylococcus aureus; strain CMC-83-127): > 256 µg/mL | Minimal Inhibitory Concentration (Staphylococcus aureus; strain CMC-83-131): > 256 µg/mL | Minimal Inhibitory Concentration (Staphylococcus aureus; strain CMC-83-132): > 256 µg/mL | Minimal Inhibitory Concentration (Staphylococcus aureus; strain SSC-82-57): > 256 µg/mL | Minimal Inhibitory Concentration (Staphylococcus aureus; strain Smith): 128 µg/mL | Minimal Inhibitory Concentration (Staphylococcus aureus; strain VGH-84-45): > 256 µg/mL | Minimal Inhibitory Concentration (Peptococcus magnus; strain ATCC 14956): 0.12 µg/mL | Minimal Inhibitory Concentration (Peptococcus magnus; strain ATCC 29328): 0.12 µg/mL | Minimal Inhibitory Concentration (Enterobacter cloacae): >256 µg/mL | MIC (Treponema hyodysenteriae [3]; strain B78 (ATCC 27164)): 1 µg/mL (≈ 0.815 µM) | MIC (Treponema hyodysenteriae [3]; strain B204 (ATCC 31212)): 1 µg/mL (≈ 0.815 µM) | MIC (Pasteurella multocida): 8 to 16 µg/mL | Minimal Inhibitory Concentration (Clostridium difficile): 4 µg/mL | Survival Ratios 7 Days After Infection [4, 9]: 2/5 | Survival Ratios 7 Days After Infection [4, 10]: 4/5 | Survival Ratios 7 Days After Infection [4, 11]: 5/5 | Survival Ratios 7 Days After Infection [4, 12]: 5/5 | Survival Ratios 7 Days After Infection [4, 13]: 5/5 | ZONE SIZE (Treponema hyodysenteriae [5]; strain B78 (ATCC 27164)): 0 mm | ZONE SIZE (Treponema hyodysenteriae [5]; strain B204 (ATCC 31212)): 15 mm | Minimal Inhibitory Concentration [6]: > 256 µg/mL | Minimal Inhibitory Concentration (Serratia marcescens): >256 µg/mL | Minimal Inhibitory Concentration (Streptococcus pneumoniae; strain K-84-21): 1 µg/mL | Minimal Inhibitory Concentration (Streptococcus pneumoniae; strain SVI): 1 µg/mL | Minimal Inhibitory Concentration (Streptococcus pneumoniae; strain VGH-84-56): 1 µg/mL | Minimal Inhibitory Concentration (Streptococcus pneumoniae; strain VGH-84-57): 2 µg/mL | Minimal Inhibitory Concentration (Streptococcus pneumoniae; strain VGH-84-58): 0.25 µg/mL | Minimal Inhibitory Concentration (Streptococcus pneumoniae; strain VGH-84-59): 0.25 µg/mL | ZONE SIZE [7]: 13 mm | Minimal Inhibitory Concentration [8]: > 256 µg/mL

C/C=C/C=C/[C@@H]1O[C@](O)([C@H](CO[C@H]2C[C@H](OC)[C@H](O[C@@H]3C[C@H](OC)[C@@H](O[C@H]4C[C@H](OC)[C@H](O)[C@H](C)O4)[C@H](C)O3)[C@H](C)O2)C(=O)NC/C=C/C=C(\C)[C@H](OC)[C@@H](C)[C@@H]2C[C@H](O)[C@@H](/C=C/C=C/C=C\C(=O)O)O2)[C@@H](O)[C@H](OC(=O)Cc2ccccc2)C1(C)C [LL-E19020 beta]
Rating (Caenorhabditis elegans): 9 (immobile or dead) | Minimal Inhibitory Concentration (Bacteroides fragilis): >128 µg/mL | Minimal Inhibitory Concentration (Morganella morganii): >128 µg/mL | Minimal Inhibitory Concentration ([1]; strain C203): 0.5 µg/mL | Minimal Inhibitory Concentration ([1]; strain VGH-84-60): 0.25 µg/mL | Minimal Inhibitory Concentration ([1]; strain VGH-84-61): 0.5 µg/mL | Minimal Inhibitory Concentration ([1]; strain VGH-84-62): 0.5 µg/mL | Minimal Inhibitory Concentration ([1]; strain VGH-84-63): 0.12 µg/mL | Minimal Inhibitory Concentration ([1]; strain VGH-84-64): 0.12 µg/mL | MIC (Escherichia coli): ≧ 256 µg/ml | % Worms Removed ([2]; 5 m/kg single oral dose): 19% | % Worms Removed ([2]; 62.5 ppm diet, fed day 7-11): 32% | % Worms Removed ([2]; 150 ppm diet, fed day 7-11): 86% | % Worms Removed ([2]; 250 ppm diet, fed day 7-11): 100% | MIC (Streptococcus pyogenes): 2 to 4 µg/mL | MIC (Salmonella choleraesuis): > 256 µg/mL | Minimal Inhibitory Concentration (Klebsiella pneumoniae): >128 µg/mL | Minimal Inhibitory Concentration (Staphylococcus aureus; strain ATCC 25923): > 256 µg/mL | Minimal Inhibitory Concentration (Staphylococcus aureus; strain CMC-83-127): > 128 µg/mL | Minimal Inhibitory Concentration (Staphylococcus aureus; strain CMC-83-131): > 128 µg/mL | Minimal Inhibitory Concentration (Staphylococcus aureus; strain CMC-83-132): > 128 µg/mL | Minimal Inhibitory Concentration (Staphylococcus aureus; strain SSC-82-57): > 128 µg/mL | Minimal Inhibitory Concentration (Staphylococcus aureus; strain Smith): > 128 µg/mL | Minimal Inhibitory Concentration (Staphylococcus aureus; strain VGH-84-45): > 128 µg/mL | Minimal Inhibitory Concentration (Peptococcus magnus; strain ATCC 14956): 0.5 µg/mL | Minimal Inhibitory Concentration (Peptococcus magnus; strain ATCC 29328): 0.5 µg/mL | Minimal Inhibitory Concentration (Enterobacter cloacae): >128 µg/mL | MIC (Treponema hyodysenteriae [3]; strain B78 (ATCC 27164)): 1 µg/mL (≈ 0.815 µM) | MIC (Treponema hyodysenteriae [3]; strain B204 (ATCC 31212)): 0.5 µg/mL (≈ 0.408 µM) | MIC (Pasteurella multocida): 8 to 16 µg/mL | Minimal Inhibitory Concentration (Clostridium difficile): 1 µg/mL | Survival Ratios 7 Days After Infection [4, 9]: 2/5 | Survival Ratios 7 Days After Infection [4, 10]: 3/5 | Survival Ratios 7 Days After Infection [4, 11]: 5/5 | Survival Ratios 7 Days After Infection [4, 12]: 5/5 | Survival Ratios 7 Days After Infection [4, 13]: 5/5 | ZONE SIZE (Treponema hyodysenteriae [5]; strain B204 (ATCC 31212)): 11 mm | Minimal Inhibitory Concentration [6]: > 128 µg/mL | Minimal Inhibitory Concentration (Serratia marcescens): >128 µg/mL | Minimal Inhibitory Concentration (Streptococcus pneumoniae; strain K-84-21): 0.5 µg/mL | Minimal Inhibitory Concentration (Streptococcus pneumoniae; strain SVI): 1 µg/mL | Minimal Inhibitory Concentration (Streptococcus pneumoniae; strain VGH-84-56): 0.5 µg/mL | Minimal Inhibitory Concentration (Streptococcus pneumoniae; strain VGH-84-57): 1 µg/mL | Minimal Inhibitory Concentration (Streptococcus pneumoniae; strain VGH-84-58): 0.25 µg/mL | Minimal Inhibitory Concentration (Streptococcus pneumoniae; strain VGH-84-59): 0.25 µg/mL | ZONE SIZE [7]: 13 mm | Minimal Inhibitory Concentration [8]: > 128 µg/mL
